Assay results as given in PubChem BioAssay (NCI).
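How tested: cells in 96-well plates exposed to compound for 48 hours at five concentrations. The concentration for 50% growth inhibition is given as GI50. TGI: total growth inhibition.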

Experiments:
Assay in all cases: DTP human tumour cell line panel, 48 h
U251 CNS = test system: U251 CNS
UACC-257 melanoma = test system: UACC-257 melanoma
LOX IMVI melanoma = test system: LOX IMVI melanoma
NCI-H460 lung = test system: NCI-H460 lung
A498 renal = test system: A498 renal
RXF 393 renal = test system: RXF 393 renal
NCI-H226 lung = test system: NCI-H226 lung
SF-268 CNS = test system: SF-268 CNS
SN12C renal = test system: SN12C renal
UACC-62 melanoma = test system: UACC-62 melanoma

Compound	GI50 (U251 CNS) [µM]	TGI (U251 CNS) [µM]	GI50 (UACC-257 melanoma) [µM]	TGI (UACC-257 melanoma) [µM]	GI50 (LOX IMVI melanoma) [µM]	TGI (LOX IMVI melanoma) [µM]	GI50 (NCI-H460 lung) [µM]	TGI (NCI-H460 lung) [µM]	GI50 (A498 renal) [µM]	GI50 (RXF 393 renal) [µM]	TGI (RXF 393 renal) [µM]	GI50 (NCI-H226 lung) [µM]	TGI (NCI-H226 lung) [µM]	GI50 (SF-268 CNS) [µM]	TGI (SF-268 CNS) [µM]	GI50 (SN12C renal) [µM]	TGI (SN12C renal) [µM]	TGI (UACC-62 melanoma) [µM]	TGI (A498 renal) [µM]	GI50 (UACC-62 melanoma) [µM]
COc1ccc(/C=C\c2cc(OC)c(OC)c(OC)c2)cc1OC(=O)c1cccc(Cn2cc(CCOC(=O)c3cccc(Cn4nnc5c4C(=O)c4ccccc4C5=O)c3)nn2)c1	< 0.01	> 100	22.9	> 100	0.0149	> 100	< 0.01	12.6	< 0.01	< 0.01	13.6	0.15	> 37.1	0.0395	35	< 0.0173	> 100	24.8		
NC(=O)C(NC=O)c1ccccc1 (configuration not stated)		> 100		> 100		> 100		> 100			> 100				> 100		> 100	> 100		
C=C(C)[C@@H]1CCC2=C[C@@H](OC2=O)[C@@H](C(=C)C)C(=O)/C=C(/C)C(=O)C1	33.4	> 100	58.3	> 100	> 100	> 100	29.1	92.2	26.7	22.4	53.3	36.9	> 100	30	> 100	28.6	77.3	61.1	69.6	24.8
COc1cccc(C2NC(=S)NC(C)=C2C(=O)Nc2ccc(F)c(Cl)c2)c1 (configuration not stated)	23.9	> 50	10.4	30.7	17.6	> 50	43.2	> 50						28.7	> 50	26.1	> 50	> 50		29.3
COc1cccc(C2C3=C(COC3=O)N(CCO)c3cc4c(cc32)OCCO4)c1 (configuration not stated)	0.221	> 50	0.0467	> 50	0.288	> 50	0.148	1.19	0.0264			7.26	> 50	0.355	> 50		> 50	> 50	0.276	
CN(C)CCN=Cc1c2ccccc2c(=O)n2c1oc1ccccc12	7.4	21	14.2	30.5	4.18	16.1	2.94	11.7		12.7	28.6	10	36.7	5.56	20	3.81	17.1	23.6		10.8
COc1ccc(-c2cc(/C=C3\C(=O)Nc4ccc(OC)cc43)[nH]n2)cc1	31.5	> 100	> 100	> 100	14	> 100	5.45	> 100		55	> 100	> 100	> 100	27.4	> 100	> 100	> 100	> 100		6.43
